# Reference: PubChem BioAssay (NCI)
#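 48-hour exposure; five concentrations; linearly interpolated endpoints. At the TGI there is no net growth.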
# Tests used:
# Test in all cases: NCI-60 cell line screen, 48 h
# NCI-H226 lung = tested on: NCI-H226 lung
# SK-MEL-28 melanoma = tested on: SK-MEL-28 melanoma
# DU-145 prostate = tested on: DU-145 prostate
# KM12 colon = tested on: KM12 colon
# A549 NSCLC = tested on: A549 NSCLC
# HOP-92 NSCLC = tested on: HOP-92 NSCLC
# LOX IMVI melanoma = tested on: LOX IMVI melanoma
# MDA-MB-435 = tested on: MDA-MB-435
# NCI/ADR-RES ovarian = tested on: NCI/ADR-RES ovarian
# SNB-19 CNS = tested on: SNB-19 CNS
# A498 renal = tested on: A498 renal
# UACC-62 melanoma = tested on: UACC-62 melanoma
# M14 melanoma = tested on: M14 melanoma
# SF-295 CNS = tested on: SF-295 CNS
# TK-10 renal = tested on: TK-10 renal
# OVCAR-3 ovarian = tested on: OVCAR-3 ovarian
# COLO 205 colon = tested on: COLO 205 colon
# SNB-75 CNS = tested on: SNB-75 CNS
# UACC-257 melanoma = tested on: UACC-257 melanoma
# HS 578T breast = tested on: HS 578T breast
# HCC-2998 colon = tested on: HCC-2998 colon
# MALME-3M melanoma = tested on: MALME-3M melanoma
# HOP-62 NSCLC = tested on: HOP-62 NSCLC
# CCRF-CEM leukemia = tested on: CCRF-CEM leukemia
# EKVX NSCLC = tested on: EKVX NSCLC
# SN12C renal = tested on: SN12C renal
# NCI-H23 lung = tested on: NCI-H23 lung
# ACHN renal = tested on: ACHN renal
# SK-OV-3 ovarian = tested on: SK-OV-3 ovarian
# SR leukemia = tested on: SR leukemia
# 786-0 renal = tested on: 786-0 renal
# NCI-H522 lung = tested on: NCI-H522 lung
# SF-268 CNS = tested on: SF-268 CNS
# MDA-N = tested on: MDA-N
# IGROV1 ovarian = tested on: IGROV1 ovarian
# OVCAR-8 ovarian = tested on: OVCAR-8 ovarian
# T-47D breast = tested on: T-47D breast
# UO-31 renal = tested on: UO-31 renal
# RXF 393 renal = tested on: RXF 393 renal
# SK-MEL-5 melanoma = tested on: SK-MEL-5 melanoma
# HL-60(TB) leukemia = tested on: HL-60(TB) leukemia
# MCF7 breast = tested on: MCF7 breast
# NCI-H460 lung = tested on: NCI-H460 lung
# K-562 leukemia = tested on: K-562 leukemia
# OVCAR-5 ovarian = tested on: OVCAR-5 ovarian
# BT-549 breast = tested on: BT-549 breast
# SF-539 CNS = tested on: SF-539 CNS
# MDA-MB-231 breast = tested on: MDA-MB-231 breast
# SW-620 colon = tested on: SW-620 colon
# MOLT-4 leukemia = tested on: MOLT-4 leukemia
# PC-3 prostate = tested on: PC-3 prostate
# HCT-116 colon = tested on: HCT-116 colon
# HT29 colon = tested on: HT29 colon
# RPMI-8226 leukemia = tested on: RPMI-8226 leukemia
# CAKI-1 renal = tested on: CAKI-1 renal
# U251 CNS = tested on: U251 CNS
# HCT-15 colon = tested on: HCT-15 colon
# OVCAR-4 ovarian = tested on: OVCAR-4 ovarian
# SK-MEL-2 melanoma = tested on: SK-MEL-2 melanoma
smiles,measurement,setting,value
Clc1nncc2sc(-c3ccccc3)nc12,TGI,NCI-H226 lung,> 82.4 µM
same,TGI,SK-MEL-28 melanoma,> 50.8 µM
same,TGI,DU-145 prostate,31.8 µM
same,TGI,KM12 colon,> 72.8 µM
same,TGI,A549 NSCLC,> 100 µM
same,TGI,HOP-92 NSCLC,24 µM
same,TGI,LOX IMVI melanoma,50.2 µM
same,TGI,MDA-MB-435,49.6 µM
same,TGI,NCI/ADR-RES ovarian,69.1 µM
same,TGI,SNB-19 CNS,51.4 µM
same,TGI,A498 renal,> 100 µM
same,TGI,UACC-62 melanoma,46.4 µM
same,TGI,M14 melanoma,52.3 µM
same,TGI,SF-295 CNS,> 77.4 µM
same,TGI,TK-10 renal,> 100 µM
same,TGI,OVCAR-3 ovarian,33.8 µM
same,TGI,COLO 205 colon,> 86.5 µM
same,TGI,SNB-75 CNS,> 64.1 µM
same,TGI,UACC-257 melanoma,56.7 µM
same,TGI,HS 578T breast,64.7 µM
same,TGI,HCC-2998 colon,> 45.7 µM
same,TGI,MALME-3M melanoma,70.6 µM
same,TGI,HOP-62 NSCLC,53.6 µM
same,TGI,CCRF-CEM leukemia,> 94.4 µM
same,TGI,EKVX NSCLC,12.5 µM
same,TGI,SN12C renal,57.7 µM
same,TGI,NCI-H23 lung,52.9 µM
same,TGI,ACHN renal,> 84.9 µM
same,TGI,SK-OV-3 ovarian,80.6 µM
same,TGI,SR leukemia,> 100 µM
same,TGI,786-0 renal,> 100 µM
same,TGI,NCI-H522 lung,44.8 µM
same,TGI,SF-268 CNS,49 µM
same,TGI,MDA-N,51.4 µM
same,TGI,IGROV1 ovarian,40.3 µM
same,TGI,OVCAR-8 ovarian,59.3 µM
same,TGI,T-47D breast,> 100 µM
same,TGI,UO-31 renal,55 µM
same,TGI,RXF 393 renal,50.7 µM
same,TGI,SK-MEL-5 melanoma,46.3 µM
same,TGI,HL-60(TB) leukemia,51.2 µM
same,TGI,MCF7 breast,> 92.6 µM
same,TGI,NCI-H460 lung,> 57.7 µM
same,TGI,K-562 leukemia,> 100 µM
same,TGI,OVCAR-5 ovarian,> 100 µM
same,TGI,BT-549 breast,> 53.2 µM
same,TGI,SF-539 CNS,74.6 µM
same,TGI,MDA-MB-231 breast,56.1 µM
same,TGI,SW-620 colon,61.3 µM
same,TGI,MOLT-4 leukemia,> 97.2 µM
same,TGI,PC-3 prostate,> 58.2 µM
same,TGI,HCT-116 colon,48.9 µM
same,TGI,HT29 colon,68.5 µM
same,TGI,RPMI-8226 leukemia,> 100 µM
same,TGI,CAKI-1 renal,2.91 µM
same,TGI,U251 CNS,> 53.2 µM
same,TGI,HCT-15 colon,36.4 µM
same,TGI,OVCAR-4 ovarian,53.5 µM
same,TGI,SK-MEL-2 melanoma,47.4 µM
COc1ccc(Oc2cnn(C(Br)(Br)C(C)=O)c(=O)c2Br)cc1,TGI,NCI-H226 lung,46.6 µM
same,TGI,SK-MEL-28 melanoma,32.4 µM
same,TGI,DU-145 prostate,42.2 µM
same,TGI,KM12 colon,31.4 µM
same,TGI,A549 NSCLC,60.7 µM
same,TGI,HOP-92 NSCLC,29.4 µM
same,TGI,LOX IMVI melanoma,24.4 µM
same,TGI,MDA-MB-435,23.4 µM
same,TGI,NCI/ADR-RES ovarian,43.9 µM
same,TGI,SNB-19 CNS,56.8 µM
same,TGI,A498 renal,59.9 µM
same,TGI,UACC-62 melanoma,29.6 µM
same,TGI,M14 melanoma,30.6 µM
same,TGI,SF-295 CNS,51.6 µM
same,TGI,TK-10 renal,26.3 µM
same,TGI,OVCAR-3 ovarian,13.6 µM
same,TGI,COLO 205 colon,26.9 µM
same,TGI,SNB-75 CNS,29.4 µM
same,TGI,UACC-257 melanoma,28.5 µM
same,TGI,HS 578T breast,> 71.6 µM
same,TGI,HCC-2998 colon,30.6 µM
same,TGI,MALME-3M melanoma,32.2 µM
same,TGI,HOP-62 NSCLC,35.5 µM
same,TGI,CCRF-CEM leukemia,4.57 µM
same,TGI,EKVX NSCLC,36.1 µM
same,TGI,SN12C renal,28.5 µM
same,TGI,NCI-H23 lung,39 µM
same,TGI,ACHN renal,26.4 µM
same,TGI,SK-OV-3 ovarian,> 64.3 µM
same,TGI,SR leukemia,5.32 µM
same,TGI,786-0 renal,27.4 µM
same,TGI,NCI-H522 lung,14.7 µM
same,TGI,SF-268 CNS,29 µM
same,TGI,MDA-N,22.9 µM
same,TGI,IGROV1 ovarian,42.8 µM
same,TGI,OVCAR-8 ovarian,27 µM
same,TGI,T-47D breast,61 µM
same,TGI,UO-31 renal,26.8 µM
same,TGI,RXF 393 renal,16.8 µM
same,TGI,SK-MEL-5 melanoma,30 µM
same,TGI,HL-60(TB) leukemia,10.9 µM
same,TGI,MCF7 breast,34.8 µM
same,TGI,NCI-H460 lung,37.1 µM
same,TGI,K-562 leukemia,16.9 µM
same,TGI,OVCAR-5 ovarian,32.2 µM
same,TGI,BT-549 breast,32.1 µM
same,TGI,SF-539 CNS,25.4 µM
same,TGI,MDA-MB-231 breast,32.5 µM
same,TGI,SW-620 colon,27.8 µM
same,TGI,MOLT-4 leukemia,3.56 µM
same,TGI,PC-3 prostate,27.4 µM
same,TGI,HCT-116 colon,19.2 µM
same,TGI,HT29 colon,48.4 µM
same,TGI,RPMI-8226 leukemia,11.8 µM
same,TGI,CAKI-1 renal,24.6 µM
same,TGI,U251 CNS,27.8 µM
same,TGI,HCT-15 colon,39.8 µM
same,TGI,OVCAR-4 ovarian,32.6 µM
same,TGI,SK-MEL-2 melanoma,31.4 µM
